Data published in patent US20230129485A1, “SYSTEM AND METHOD FOR DETERMINING MATERIAL PROPERTIES OF MOLECULAR SYSTEMS FROM AN AB-INITIO PARAMETERIZED FORCE-FIELD” (InterX, Inc., priority 2021, published 2023).
Like-named read-outs stand apart in the source and are kept apart here.

Experiments:
[1] = experimental, cited from earlier work
[2] = Free energy of hydration by Solvation Model Dielectric (SMD) implicit solvent model; details: absolute error vs Exp (hydration)
Procedure, shortened: (§1)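 Implicit-solvent predictions of hydration free energy. MolPro supplied the COSMO solvation energies across the dataset. Predicted SMD and PCM values were received rather than computed here. Coverage for SMD, PCM and COSMO-RS matches the QM-parameterized force-field subset.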

[3] = experimental, cited from earlier work; for Exp (hydration): Table 5
[4] = Free energy of hydration predicted with the QM-parameterized force field model (ARROW FF), classical MD and PIMD simulation in a water box; details: for Arrow PIMD8 Error: absolute error vs Exp (hydration); for Arrow error: Table 5, error of Arrow PIMD8 hydration free energy vs experiment
Procedure, shortened: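 Classical and PIMD runs (MTS integrator, MTTK barostat at 1 atm) followed minimization and 50 ps equilibration, with 1 ns NPT production per window. Fifteen unequally spaced lambda windows removed all solute-solvent interactions simultaneously in a 32 Å water box. Hydration free energy computed by Bennett acceptance ratio and thermodynamic integration.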

[5] = CHEX/H2O partition coefficient (log D) predicted with the QM-parameterized force field model (ARROW FF)
Procedure, shortened: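 Cyclohexane/water partition coefficients were predicted by molecular simulation with a QM-parameterized force field, with bonded force constants and equilibrium values fitted to MP2/aug-cc-pVTZ energies. Solutes carried neutral functional groups, and results from four independent groups were averaged.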

[6] = Free energy of hydration by COSMO-RS
Procedure, shortened: as §1

[7] = implicit solvent model, values received; cited from earlier work
[8] = implicit solvent model, values received; cited from earlier work; remark: listed apart in the source
[9] = CHEX/H2O partition coefficient, experimental, cited from earlier work; for Exp (log D): Table 3; for logD Exp (logD): Table 4
[10] = Free energy of hydration by COSMO implicit solvent model (MolPro ver. 2012); details: absolute error vs Exp (hydration)
Procedure, shortened: as §1

[11] = Free energy of hydration by Free Energy Machine Learning Model (FML); details: absolute error vs Exp (hydration)
Description: Machine learning models can be used for free energy determination.

[12] = Free energy of hydration by Polarizable Continuum Model (PCM); details: absolute error vs Exp (hydration)
Procedure, shortened: as §1

[13] = Free energy of hydration predicted by polarizable AMOEBA force field, from literature; details: Table 5; error of AMOEBA hydration free energy vs experiment
[14] = Table 5; free energy of hydration, AMOEBA prediction taken from literature; cited from earlier work
[15] = Table 5; free energy of hydration, GAFF prediction taken from literature; cited from earlier work
[16] = Free energy of hydration predicted by General Amber Force Field (GAFF), from literature; details: Table 5; error of GAFF hydration free energy vs experiment
[17] = Free energy of solvation in cyclohexane predicted with the QM-parameterized force field model (ARROW FF), MD and PIMD; details: Table 4; for CHEX Arrow MD Error: error of MD cyclohexane solvation free energy vs experiment; for CHEX Arrow PIMD4 Error: error of PIMD4 cyclohexane solvation free energy vs experiment
Procedure, shortened: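 Solute–cyclohexane interactions decoupled over 15 λ points with soft-core scaling, in MD and path-integral simulations under NPT at 1 atm using PME electrostatics and 9 Å cutoffs. Each window had 50 ps equilibration and 1 ns production; free energies from BAR and TI.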

[18] = Table 3, free energy of solvation in cyclohexane
[19] = Table 3, free energy of hydration
[20] = Table 3, absolute error of MD hydration free energy vs experiment
[21] = Table 3, absolute error of PIMD8 hydration free energy vs experiment
[22] = Table 3, absolute error of MD log D vs experiment
[23] = Table 3, absolute error of PIMD log D vs experiment
[24] = Table 4, solvation free energy in cyclohexane
[25] = Table 4, neutral amino-acid analogues
[26] = Table 4, error of MD hydration free energy vs experiment
[27] = Table 4, error of PIMD8 hydration free energy vs experiment

CCCC(C)=O [2-Pentanone]
CHEX Exp (solvation) [1, 18]: -4.19 kcal/mol
SMD Error [2]: 0.18 kcal/mol
water Exp (hydration) [3, 19]: -3.52 kcal/mol
water Arrow MD Error [4, 20]: 0.67 kcal/mol
water Arrow PIMD8 Error [4, 21]: 0.01 kcal/mol
Arrow PIMD8 Error [4]: 0.01 kcal/mol
log D Arrow MD Error [5]: 0.22
log D Arrow PIMD Error [5]: 0.20
COSMO-RS error [6]: 0.07 kcal/mol
SMD free energy of hydration [7]: -3.70 kcal/mol
PCM free energy of hydration [8]: -4.00 kcal/mol
Exp (log D) [9]: 0.49
COSMO/Molpro Error [10]: 4.22 kcal/mol
FML error [11]: 0.29 kcal/mol
PCM Error [12]: 0.48 kcal/mol

CCC(=O)CC [3-Pentanone]
CHEX Exp (solvation) [1, 18]: -4.30 kcal/mol
SMD Error [2]: 0.09 kcal/mol
water Exp (hydration) [3, 19]: -3.41 kcal/mol
water Arrow MD Error [4, 20]: 0.88 kcal/mol
water Arrow PIMD8 Error [4, 21]: 0.23 kcal/mol
Arrow PIMD8 Error [4]: 0.23 kcal/mol
log D Arrow MD Error [5]: 0.32
log D Arrow PIMD Error [5]: 0.02
COSMO-RS error [6]: 0.06 kcal/mol
SMD free energy of hydration [7]: -3.50 kcal/mol
PCM free energy of hydration [8]: -3.70 kcal/mol
Exp (log D) [9]: 0.65
COSMO/Molpro Error [10]: 3.33 kcal/mol
FML error [11]: 0.16 kcal/mol
PCM Error [12]: 0.29 kcal/mol

CC(C)=O [Acetone]
CHEX Exp (solvation) [1, 18]: -2.67 kcal/mol
SMD Error [2]: 0.30 kcal/mol
water Exp (hydration) [3, 19]: -3.80 kcal/mol
water Arrow MD Error [4, 20]: 0.33 kcal/mol
water Arrow PIMD8 Error [4, 21]: 0.31 kcal/mol
Arrow PIMD8 Error [4]: 0.31 kcal/mol
log D Arrow MD Error [5, 22]: 0.01
log D Arrow PIMD Error [5, 23]: 0.31
COSMO-RS error [6]: 0.90 kcal/mol
SMD free energy of hydration [7]: -4.10 kcal/mol
PCM free energy of hydration [8]: -4.20 kcal/mol
Exp (log D) [9]: −0.83
COSMO/Molpro Error [10]: 4.55 kcal/mol
FML error [11]: 0.34 kcal/mol
PCM Error [12]: 0.40 kcal/mol

CC [Ethane]
SMD Error [2]: 0.01 kcal/mol
AMOEBA error [13]: 0.06 kcal/mol
water Exp (hydration) [3, 19]: 1.79 kcal/mol
Exp (hydration) ([3]; free energy of hydration): 1.79 kcal/mol
AMOEBA [14]: 1.73 kcal/mol
GAFF [15]: 2.58 kcal/mol
water Arrow MD Error [4, 20]: 0.42 kcal/mol
water Arrow PIMD8 Error [4, 21]: 0.12 kcal/mol
Arrow error [4]: 0.12 kcal/mol
Arrow PIMD8 Error [4]: 0.12 kcal/mol
COSMO-RS error [6]: 0.02 kcal/mol
SMD free energy of hydration [7]: 1.80 kcal/mol
PCM free energy of hydration [8]: -0.10 kcal/mol
COSMO/Molpro Error [10]: 2.19 kcal/mol
GAFF error [16]: 0.79 kcal/mol
FML error [11]: 0.85 kcal/mol
PCM Error [12]: 1.89 kcal/mol

CC(C)C [Isobutane]
CHEX Exp (solvation) [1, 18]: -2.61 kcal/mol
CHEX Exp (solvation) [1, 24]: -2.61 kcal/mol
SMD Error [2]: 0.28 kcal/mol
water Exp (hydration) [3, 19]: 2.28 kcal/mol
water Exp (hydration) [3, 25]: 2.28 kcal/mol
water Arrow MD Error [4, 20]: 0.93 kcal/mol
water Arrow PIMD8 Error [4, 21]: 0.02 kcal/mol
water Arrow MD Error [4, 26]: 0.93 kcal/mol
water Arrow PIMD8 Error [4, 27]: 0.02 kcal/mol
Arrow PIMD8 Error [4]: 0.02 kcal/mol
log D Arrow MD Error [5]: 0.44
log D Arrow PIMD Error [5]: 0.06
logD Arrow MD Error [5]: 0.44
logD Arrow PIMD Error [5]: 0.06
COSMO-RS error [6]: 0.14 kcal/mol
SMD free energy of hydration [7]: 2.00 kcal/mol
PCM free energy of hydration [8]: -0.20 kcal/mol
Exp (log D) [9]: 3.59
logD Exp (logD) [9]: 3.59
CHEX Arrow MD Error [17]: 0.33 kcal/mol
CHEX Arrow PIMD4 Error [17]: 0.10 kcal/mol
COSMO/Molpro Error [10]: 2.28 kcal/mol
FML error [11]: 0.12 kcal/mol
PCM Error [12]: 2.48 kcal/mol

CNC(C)=O [N-Methylacetamide]
SMD Error [2]: 1.40 kcal/mol
AMOEBA error [13]: 1.34 kcal/mol
water Exp (hydration) [3, 19]: -10 kcal/mol
Exp (hydration) ([3]; free energy of hydration): -10.00 kcal/mol
AMOEBA [14]: -8.66 kcal/mol
GAFF [15]: -8.39 kcal/mol
water Arrow MD Error [4, 20]: 1.52 kcal/mol
water Arrow PIMD8 Error [4, 21]: 0.49 kcal/mol
Arrow error [4]: 0.49 kcal/mol
Arrow PIMD8 Error [4]: 0.49 kcal/mol
COSMO-RS error [6]: 0.27 kcal/mol
SMD free energy of hydration [7]: -8.60 kcal/mol
PCM free energy of hydration [8]: -6.60 kcal/mol
COSMO/Molpro Error [10]: 3.10 kcal/mol
GAFF error [16]: 1.61 kcal/mol
FML error [11]: 1.89 kcal/mol
PCM Error [12]: 3.40 kcal/mol

CCCCCCCCO [Octanol]
SMD Error [2]: 0.69 kcal/mol
AMOEBA error [13]: 1.44 kcal/mol
water Exp (hydration) [3, 19]: -4.09 kcal/mol
Exp (hydration) ([3]; free energy of hydration): -4.09 kcal/mol
AMOEBA [14]: -2.65 kcal/mol
GAFF [15]: -5.20 kcal/mol
water Arrow MD Error [4, 20]: 1.40 kcal/mol
water Arrow PIMD8 Error [4, 21]: 0.22 kcal/mol
Arrow error [4]: 0.22 kcal/mol
Arrow PIMD8 Error [4]: 0.22 kcal/mol
COSMO-RS error [6]: 0.18 kcal/mol
SMD free energy of hydration [7]: -3.40 kcal/mol
PCM free energy of hydration [8]: -3.30 kcal/mol
COSMO/Molpro Error [10]: 2.57 kcal/mol
GAFF error [16]: 1.11 kcal/mol
FML error [11]: 0.02 kcal/mol
PCM Error [12]: 0.79 kcal/mol

c1cc[nH]c1 [Pyrrole]
AMOEBA error [13]: 1.00 kcal/mol
water Exp (hydration) [3, 19]: -4.8 kcal/mol
Exp (hydration) ([3]; free energy of hydration): -4.80 kcal/mol
AMOEBA [14]: -3.80 kcal/mol
GAFF [15]: -3.87 kcal/mol
water Arrow MD Error [4, 20]: 0.08 kcal/mol
water Arrow PIMD8 Error [4, 21]: 0.63 kcal/mol
Arrow error [4]: 0.63 kcal/mol
Arrow PIMD8 Error [4]: 0.63 kcal/mol
COSMO-RS error [6]: 0.96 kcal/mol
COSMO/Molpro Error [10]: 2.42 kcal/mol
GAFF error [16]: 0.93 kcal/mol
FML error [11]: 2.22 kcal/mol

CCCCC(C)=O [hexa2none]
CHEX Exp (solvation) [1, 18]: -4.77 kcal/mol
SMD Error [2]: 0.22 kcal/mol
water Exp (hydration) [3, 19]: -3.28 kcal/mol
water Arrow MD Error [4, 20]: 0.69 kcal/mol
water Arrow PIMD8 Error [4, 21]: 0.20 kcal/mol
Arrow PIMD8 Error [4]: 0.20 kcal/mol
log D Arrow MD Error [5, 22]: 0.07
log D Arrow PIMD Error [5, 23]: 0.11
COSMO-RS error [6]: 0.17 kcal/mol
SMD free energy of hydration [7]: -3.50 kcal/mol
PCM free energy of hydration [8]: -4.00 kcal/mol
Exp (log D) [9]: 1.09
COSMO/Molpro Error [10]: 4.43 kcal/mol
FML error [11]: 0.07 kcal/mol
PCM Error [12]: 0.72 kcal/mol

CCC=O [propionaldehyde]
SMD Error [2]: 0.33 kcal/mol
AMOEBA error [13]: 0.35 kcal/mol
AMOEBA [14]: -3.08 kcal/mol
GAFF [15]: -3.41 kcal/mol
water Arrow MD Error [4, 20]: 0.30 kcal/mol
water Arrow PIMD8 Error [4, 21]: 0.25 kcal/mol
Arrow error [4]: 0.45 kcal/mol
Arrow PIMD8 Error [4]: 0.25 kcal/mol
COSMO-RS error [6]: 0.26 kcal/mol
COSMO/Molpro Error [10]: 4.76 kcal/mol
GAFF error [16]: 0.02 kcal/mol
FML error [11]: 0.05 kcal/mol
PCM Error [12]: 0.17 kcal/mol

CCC(N)=O [propionamide]
CHEX Exp (solvation) [1, 24]: -3.77 kcal/mol
water Exp (hydration) [3, 19]: -9.4 kcal/mol
water Exp (hydration) [3, 25]: -9.4 kcal/mol
water Arrow MD Error [4, 20]: 1.21 kcal/mol
water Arrow PIMD8 Error [4, 21]: 0.17 kcal/mol
water Arrow MD Error [4, 26]: 1.21 kcal/mol
water Arrow PIMD8 Error [4, 27]: 0.17 kcal/mol
Arrow PIMD8 Error [4]: 0.17 kcal/mol
logD Arrow MD Error ([5]; Table 4, error of MD logD vs experiment): 0.54
logD Arrow PIMD Error ([5]; Table 4, error of PIMD logD vs experiment): 0.12
logD Exp (logD) [9]: −4.13
CHEX Arrow MD Error [17]: 0.48 kcal/mol
CHEX Arrow PIMD4 Error [17]: 0.34 kcal/mol
COSMO/Molpro Error [10]: 3.50 kcal/mol
FML error [11]: 2.21 kcal/mol
